“Also recorded” adds a separate entry of the source. Where two headings read alike, the source gives them in different places.
Columns and labels:
[1] = system: vascular function; settings: cited from earlier work
[2] = system: platelets; settings: 4 mg/kg/day; cited from earlier work
[3] = system: platelets; settings: 10 mg daily for three months; cited from earlier work
[4] = system: cyclooxygenase; settings: in vitro; cited from earlier work
[5] = system: eNOS; settings: 1 μM; human umbilical vein endothelial cells; cited from earlier work
[6] = Plasma resveratrol concentrations after capsule intake (HPLC); type: in vivo, human; settings: one hour study, median (interquartile range), baseline 0.00 (0.00, 0.00)
Procedure: The study included two separate investigations: a one hour study and a two hour study (FIG. 1). […] The two hour study was designed to fully assess and compare the responses to trans-res and ResArgin™.
Participants were randomized by block design to consumed trans-res or ResArgin™ in random order. Randomization was performed by the study coordinator following a predetermined plan formulated via a web-based random number generator. […] The study included two separate investigations: a one hour study and a two hour study (FIG. 6). During each study visit, which took place after an overnight fast, a baseline measurement of PAT and a blood sample were collected, followed by consumption of the assigned treatment. During the one hour study, PAT measurements and blood samples were collected thirty and sixty minutes after the capsules were consumed. During the two hour study, a PAT measurement and blood sample were taken two hours after the capsules were consumed.
Briefly, plasma was treated with acidified methanol [0.5% (v/v) of acetic acid in methanol; precooled to −20° C.] containing an appropriate recovery standard. The mixture was stored at −80 C for 12 hours to allow for cryo-assisted protein precipitation, and then centrifuged for 15 min at 16,500×g. […]

[7] = system: Healthy postmenopausal women; test: Microvascular function by peripheral arterial tonometry (Endo-PAT2000), randomized double-blind crossover trial; type: in vivo, human; settings: combined data
[8] = system: platelets; test: Platelet function by whole blood/optical lumi-aggregometer after capsule intake; type: in vivo, human
Procedure: Participants were randomized by block design to consumed trans-res or […] random order. Randomization was performed by the study coordinator following a predetermined plan formulated via a web-based random number generator. […] The study included two separate investigations: a one hour study and a two hour study (FIG. 6). During each study visit, which took place after an overnight fast, a baseline measurement of PAT and a blood sample were collected, followed by consumption of the assigned treatment. During the one hour study, PAT measurements and blood samples were collected thirty and sixty minutes after the capsules were consumed. During the two hour study, a PAT measurement and blood sample were taken two hours after the capsules were consumed. Platelet reactivity during clinical screening was assessed by a PFA-100 (Siemens, Deerfield, Ill.), which measures platelet function by simulating arterial hemostasis under blood flow shear stress. During the intervention, platelet function was assessed by a whole blood/optical lumi-aggregometer (Chrono-log Model 700, Havertown, Pa.). Briefly, platelet aggregation was measured via electrical impedence (or electrical resistance), whereas lumi-aggregometry was used to examine aggregation together with adenosine triphosphate (hereafter, “ATP”) release, which is determined with firefly luciferin-luciferase system. […] One of the following agonists was used to stimulate platelets: collagen ([…]), AA (10 μL) or ADP ([…]). ATP release was measured only when platelets were activated with ADP. The aggregation was measured over a period of six minutes, following the addition of an agonist.

[9] = system: platelets; settings: in vitro, 10-1,000 μM, dose dependent; cited from earlier work
[10] = 10 mg per day for three months, stable coronary artery disease patients
[11] = platelets stimulated with 1 μL collagen, one hour post consumption of 90 mg
[12] = platelets stimulated with 10 μL arachidonic acid, one hour after intake of 90 mg

Oc1ccc(C=Cc2cc(O)cc(O)c2)cc1 [Resveratrol, 3,5, 4′-trihydroxystilbene]
FMD response [1, 10]: enhanced
FMD response ([1]; 75 mg daily for six weeks): enhanced
ADP-induced platelet aggregation [2]: inhibited

Oc1ccc(/C=C/c2cc(O)cc(O)c2)cc1 [trans-res, Trans-resveratrol]
Platelet aggregation [3]: significantly reduced
Cyclooxygenase (COX) activity [4]: inhibit
Expression of eNOS [5]: up-regulated
Plasma resveratrol concentration ([6]; 30 minutes after intake of 90 mg): 2.04 (0.82, 2.54)
Plasma resveratrol concentration ([6]; 60 minutes after intake of 90 mg): 2.65 (1.69, 3.44)
FMD response [1, 10]: significant improvement
FMD response ([1]; 75 mg daily for six weeks): significant increase
FMD response ([1]; 75 mg, one hour post-consumption): significant increase
FMD response ([1]; single dose of 30, 90 and 270 mg, one hour after consumption): increase
AI@75 (AI normalized to a heart rate of 75 beats per minute), change ([7]; 90 mg): No significant changes
RHI ([7]; 1 hour after intake, ResArgin baseline 2.119±0.085): not observed
FRHI, change from baseline ([7]; one and two hours after intake): No differences were observed; also recorded: no changes
Slope, change from baseline ([8]; lumi-aggregometry with 10 μL ADP, one hour post consumption of 90 mg): significant decrease
Lag time, change from baseline [8, 11]: significant increase
Slope, change from baseline [8, 11]: not
Area under the curve (AUC) of aggregation, change from baseline [8, 12]: no changes
Maximum aggregation, change from baseline [8, 12]: no changes
Platelet function, change from baseline ([8]; stimulation with 5 μL collagen, one hour post consumption of 90 mg): no significant changes
Platelet aggregation [9]: significantly reduced
